Measured values reported in patent US11998541B2, “Method for alleviating chronic liver disease using Rosoxacin” (National Yang Ming Chiao Tung University, priority 2022, dated 2024).
“Also recorded” adds a separate entry of the source.

Experiments:
HepG2 cells [1] = test: Amount of accumulated lipid droplets in fatty acid-treated HepG2 cells (BODIPY, flow cytometry); format: cell-based, human; conditions: FIG. 2
Method: The HepG2 cells prepared in section 1 of “General Experimental Materials” were divided into 6 groups, including a normal control group, two comparative groups (i.e., comparative groups 1 and 2), a pathological control group, and two experimental groups (i.e., experimental groups 1 and 2). Each group of the HepG2 cells was incubated in a respective well of a 24-well culture plate containing 1 mL of DMEM medium at 1.2×10^5 cells/well, followed by cultivation in an incubator with culture conditions set at 37° C., 5% CO2. On the 24th and 48th hours after cultivation, the culture medium in each well was removed, and the cells of the respective group were added with the respective testing agent as shown in Table 2 below. […] After that, the supernatant was poured off, and the pellet was subjected to a fixation treatment with 4% paraformaldehyde (in PBS) for 15 minutes, followed by determining the fluorescence intensity using a flow cytometer (BD Biosciences, Cat. No. BD Accuri C6). The BODIPY was excited by an argon-ion laser (488 nm) to generate fluorescence. The fluorescence intensity was then measured at a wavelength of 504 nm, and 10,000 cells were analyzed each time. The data thus obtained were analyzed using BD Accuri C6 software, so as to obtain the mean fluorescence intensity (MFI) value in each group. […]

male C57BL/6JNarl mice [2] = test: High-fat diet induced NAFLD in mice, oral rosoxacin; format: in vivo; conditions: for lipid droplets accumulated in liver (hematoxylin-eosin histology) / aspartate transaminase (AST) content in serum / alanine transaminase (ALT) content in serum: HFD; for lipid droplets accumulated in liver (hematoxylin-eosin histology): FIG. 5; for aspartate transaminase (AST) content in serum: FIG. 6; for alanine transaminase (ALT) content in serum: FIG. 7; for liver weight: FIG. 4
Source text: The male C57BL/6JNarl mice were randomly divided into a normal control group, a pathological control group, and two experimental groups (i.e., experimental groups 1 and 2) (n=5 per group). The mice in the normal control group were fed ad libitum for a total of 14 weeks with a normal chow diet (NCD) (Altromin, Cat. No. 1320). In addition, the mice in each of the pathological control group and the experimental groups 1 and 2 were fed ad libitum for a total of 14 weeks with a high-fat diet (HFD) (Research Diets, Cat. No. D12492) containing 60% fat, so as to induce NAFLD.
On the 5th week after feeding the diet to the mice in each group as described in section B of this example, the mice in each of the experimental groups 1 and 2 were also fed, via oral gavage, with the rosoxacin solution prepared in section A of this example, at a respective dose of 10 mg/kg per mouse and 50 mg/kg per mouse. In addition, the mice in each of the normal control group and the pathological control group were fed, via oral gavage, with PBS at a volume of 150 μL. Each mouse was fed once every two days until the end of the 14th week after feeding with the diets.
Prior to the feeding of the diets as described in section B of this example (i.e., at the 0th week), on the 1st day of each week after starting the feeding of the diets, and at the end of the 14th week after starting the feeding of the diets, the body weight of each mouse was measured.
After completion of the determination of body weight at the end of the 14th week, the mice in each group were sacrificed using CO2, and blood samples were collected via cardiac puncture at the same time. Each of the blood samples was then subjected to centrifugation at 4° C. under a speed of 1200 g for […], so as to obtain a serum sample. In addition, liver tissue was obtained from each mouse carcass, and then was subjected to weight measurement. The data thus obtained were analyzed according to the procedures as described in section 1 of “General Procedures”.
The liver tissue of each mouse obtained in section D of this example was subjected to a fixation treatment with a 10% paraformaldehyde solution for 24 hours. Next, the fixed liver tissue was subjected to a dehydration treatment performed in sequence using ethanol solutions having concentrations of […], respectively. After that, the dehydrated liver tissue was washed with xylene, and was then embedded with paraffin, followed by slicing, so as to obtain a tissue section having a thickness of 5 μm.
After dewaxing, the tissue section was subjected to hematoxylin-eosin staining using a staining protocol well-known to those skilled in the art, and was then observed under an optical microscope (Leica, Cat. No. DM2500) at a magnification of 20×.
The serum sample of each mouse obtained in section D of this example was subjected to determination of liver function indexes (i.e., aspartate transaminase (AST) and alanine transaminase (ALT)) which was entrusted to Bio-Cando Co., Ltd., so as to assess the degree of liver injury in the mouse. The data thus obtained were analyzed according to the procedures as described in section 1 of “General Procedures”.

α-SMA = test: Expression level of α-SMA in fatty acid-treated LX-2 cells (Western blotting); format: cell-based, human; conditions: fatty acid mixture + rosoxacin 50 μM (24th, 48th h), 900 μM (72nd h), p<0.0001, FIG. 8
Method: Each group of the LX-2 cells was incubated in a respective well of a 24-well culture plate containing 1 mL of DMEM medium at 1.2×10^5 cells/well, followed by cultivation in an incubator with culture conditions set at 37° C., 5% CO2. On the 24th and 48 th hours after cultivation, the culture medium in each well was removed, and the cells of the respective group were added with the respective testing agent as shown in Table 3 below. In addition, on the 72nd hour after cultivation, the cell culture of the respective group was added with the respective testing agent as shown in Table 3. On the 96th hour after cultivation, the liquid in each well was removed, and the cells were washed with PBS, followed by adding 500 μL of trypsin-EDTA to detach the cells from the bottom of the plate. Subsequently, 1 mL fresh DMEM medium was added to each well to neutralize trypsin activity, followed by centrifugation at 4° C. under a speed of 300 g for 3 minutes, so as to form a supernatant and a pellet. After that, the supernatant was poured off, and the resultant cell pellet was collected. […] The protein concentration in the total protein sample was determined using bicinchoninic acid assay kit (Thermo, Cat. No. 23227) in accordance with the manufacturer's instructions. […] Subsequently, ImageJ Imaging Software was used for semi-quantitatively calculating the corresponding protein expression level. […]

male C57BL/6JNarl mice [3] = test: CDAA diet induced NASH / liver fibrosis in mice, oral rosoxacin; format: in vivo; conditions: 50 mg/kg oral gavage once every two days, week 3 to 6 of CDAA diet
Source text: The male C57BL/6JNarl mice were randomly divided into a normal control group, a pathological control group, and an experimental group (n=6 per group). The mice in the normal control group were fed ad libitum for a total of 6 weeks with a normal chow diet (NCD) (Altromin, Cat. No. 1320). In addition, the mice in each of the pathological control group and the experimental group were fed ad libitum for a total of 6 weeks with a choline deficient L-amino acid defined diet (CDAA) (Research Diets, Cat. No. A21060401) containing 45% fat and 0.2% cholesterol, so as to induce NASH.
On the 3rd week after feeding the diet to the mice in each group as described in the preceding paragraph, the mice in the experimental group were also fed, via oral gavage, with the rosoxacin solution prepared in section A of Example 2, at a dose of 50 mg/kg per mouse. In addition, the mice in each of the normal control group and the pathological control group were fed, via oral gavage, with PBS at a volume of 150 μL. Each mouse was fed once every two days until the end of the 6th week after feeding with the diets. […]
Next, ImageJ Imaging software was used for quantitatively calculating the percentage (%) of Sirius Red-stained area. […] The data thus obtained were analyzed according to the procedures as described in section 1 of “General Procedures”.

HepG2 cells [4] = test: Relative amount of accumulated lipid droplets in HepG2 cells, different quinolone antibiotics (BODIPY); format: cell-based, human; conditions: fatty acid mixture + antibiotic 50 μM (24th, 48th h), 900 μM (72nd h); FIG. 11
Method: The HepG2 cells prepared in section 1 of “General Experimental Materials” were divided into 7 groups, including a pathological control group, an experimental group, and five comparative groups (i.e., comparative groups 1 to 5). Each group of the HepG2 cells was incubated in a respective well of a 24-well culture plate containing 1 mL of DMEM medium at 1.2×10^5 cells/well, followed by cultivation in an incubator with culture conditions set at 37° C., 5% CO2.
On the 24th and 48th hours after cultivation, the culture medium in each well was removed, and the cells of the respective group were added with the respective testing agent as shown in Table 5 below. […]
The cell suspension of the respective one of the pathological control group, the experimental group, and the comparative groups 1 to 5 obtained in section B of this example was added with 50 μL of BODIPY solution (DMEM containing 13 μg/mL BODIPY 493/504 (Sigma-Aldrich, Cat No. 790389)), followed by placing on ice for 30 minutes in the dark to allow neutral lipid staining to be carried out. […] After that, the supernatant was poured off, and the pellet was subjected to a fixation treatment with 4% paraformaldehyde (in PBS) for 15 minutes, followed by determination of fluorescence intensity using a flow cytometer (BD Biosciences, Cat. No. BD Accuri C6).
The BODIPY was excited by an argon-ion laser (488 nm) to generate fluorescence. […]

[5] = experimental group 1: 10 mg/kg oral gavage once every two days
[6] = experimental group 2: 50 mg/kg oral gavage once every two days

With `CCn1cc(C(=O)O)c(=O)c2ccc(-c3ccncc3)cc21` [rosoxacin, 1-ethyl-4-oxo-7-(4-pyridyl)-1,4-dihydroquinoline-3-carboxylic acid] the “mean fluorescence intensity (MFI) value (accumulated lipid droplets)” value (HepG2 cells [1]; experimental group 1: fatty acid mixture + rosoxacin 10 μM (24th, 48th h), 180 μM (72nd h)) was “lower than that of the pathological control group”, the “mean fluorescence intensity (MFI) value (accumulated lipid droplets)” value (HepG2 cells [1]; experimental group 2: fatty acid mixture + rosoxacin 50 μM (24th, 48th h), 900 μM (72nd h), p<0.001) was “significantly lower than that determined in the pathological control group” and the “lipid droplets accumulated in liver (hematoxylin-eosin histology)” value (male C57BL/6JNarl mice [2]; [5]) was “significantly lower than those in the pathological control group”. The “aspartate transaminase (AST) content in serum” value (male C57BL/6JNarl mice [2]; [5]) was “apparently or significantly lower than those determined in the pathological control group”, the “alanine transaminase (ALT) content in serum” value (male C57BL/6JNarl mice [2]; [5]) was “apparently or significantly lower than those determined in the pathological control group” and the liver weight (male C57BL/6JNarl mice [2]; experimental group 1: 10 mg/kg oral gavage once every two days, week 5 to 14 of HFD, 10 mg/kg) was “apparently or significantly lower than that determined in the pathological control group”. For the same molecule, the “lipid droplets accumulated in liver (hematoxylin-eosin histology)” value (male C57BL/6JNarl mice [2]; [6]) was “significantly lower than those in the pathological control group”, the “aspartate transaminase (AST) content in serum” value (male C57BL/6JNarl mice [2]; [6]) was “apparently or significantly lower than those determined in the pathological control group” and the “alanine transaminase (ALT) content in serum” value (male C57BL/6JNarl mice [2]; experimental group 2: 50 mg/kg oral gavage once every two days, p<0.05) was “significantly lower than that determined in the pathological control group”. The liver weight (male C57BL/6JNarl mice [2]; experimental group 2: 50 mg/kg oral gavage once every two days, week 5 to 14 of HFD, 50 mg/kg) was “apparently or significantly lower than that determined in the pathological control group; also recorded: even lower than that of the normal control group”, the body weight (male C57BL/6JNarl mice [2]; experimental group 2: 50 mg/kg oral gavage once every two days, week 5 to 14 of HFD, p<0.05, FIG. 3) was “significantly lower than that determined in the pathological control group” and the “expression level of α-SMA (normalized to β-actin)” value (α-SMA) was “significantly lower than that determined in the pathological control group; also recorded: even lower than that determined in the normal control group”. For the same molecule, the “lipid droplets accumulated in liver (hematoxylin-eosin histology)” value (male C57BL/6JNarl mice [3]; FIG. 9) was “significantly less than those in the pathological control group”, the “percentage of Sirius Red-stained area” value (male C57BL/6JNarl mice [3]; p<0.0001, FIG. 10) was “significantly lower than that determined in the pathological control group” and the “relative percentage of MFI value (pathological control group = 100%)” value (HepG2 cells [4]) was “significantly lower than that determined in the pathological control group”.
